DBAASP
Converted amounts (≈) assume the structure as drawn. Values belong to the molecule of their own block, whether it stands above or below them.

Tests used:
Assay in all cases: ≥ marks a high value that may be exact or a test limit, other limits are often not marked, values filed in µg/mL are converted to µM
Escherichia coli K88 = system: Escherichia coli K88
[1] = system: Escherichia coli O157:H7 CICC 21530
[2] = system: Lacticaseibacillus rhamnosus 1.0911
[3] = system: Lacticaseibacillus rhamnosus 1.0936
[4] = system: Lacticaseibacillus rhamnosus 1.9021
[5] = system: Lacticaseibacillus rhamnosus 8014
[6] = system: Pseudomonas aeruginosa ATCC 27853
[7] = system: Pseudomonas aeruginosa PAO1
[8] = system: Salmonella enterica subsp. enterica serovar Choleraesuis CVCC 503
[9] = system: Salmonella enterica subsp. enterica serovar Pullorum C79-13
[10] = system: Salmonella enterica subsp. enterica serovar Typhimurium ATCC 14028
[11] = system: Staphylococcus aureus ATCC 29213
[12] = system: Staphylococcus aureus ATCC 43300
[13] = system: Staphylococcus epidermidis ATCC 12228
[14] = system: Streptococcus agalactiae BNCC 185941
[15] = system: Aeromonas salmonicida 97-4
[16] = system: Aeromonas salmonicida 99-1
Candida albicans C627 = system: Candida albicans C627
[17] = system: Escherichia coli CGSC 4908
Escherichia coli DC2 = system: Escherichia coli DC2
Escherichia coli UB1005 = system: Escherichia coli UB1005
[18] = system: Pseudomonas aeruginosa K799
[19] = system: Pseudomonas aeruginosa Z61
[20] = system: Salmonella enterica serovar typhimurium MS7953s
[21] = system: Salmonella enterica subsp. enterica serovar Typhimurium ATCC 14028s
[22] = system: Staphylococcus aureus C623
[23] = system: Staphylococcus epidermidis C621
[24] = system: Bacillus subtilis KCTC 1998
[25] = system: Candida albicans KCTC 7270
[26] = system: Escherichia coli ATCC 25922
[27] = system: Escherichia coli CCARM 1229
[28] = system: Escherichia coli CCARM 1238
[29] = system: Listeria monocytogenes KCTC 3710
[30] = system: Pseudomonas aeruginosa 4007
[31] = system: Pseudomonas aeruginosa 4891
[32] = system: Salmonella typhimurium KCTC 1926
[33] = system: Staphylococcus aureus ATCC 25923
[34] = system: Staphylococcus aureus CCARM 3090
[35] = system: Staphylococcus aureus CCARM 3518
[36] = system: Trichosporon beigelii KCTC 7707
[37] = system: Candida albicans ATCC 10231
Candida albicans = system: Candida albicans
Candida glabrata = system: Candida glabrata
Candida krusei = system: Candida krusei
Candida parapsilosis = system: Candida parapsilosis
Candida tropicalis = system: Candida tropicalis

SMILES: CC(C)C[C@H](NC(=O)CNC(=O)[C@H](CCCCN)NC(=O)[C@H](CC(C)C)NC(=O)[C@H](CC(C)C)NC(=O)[C@H](CCCCN)NC(=O)[C@@H](N)CCCCN)C(=O)N[C@@H](CC(C)C)C(=O)N[C@@H](CCCCN)C(=O)NCC(=O)N[C@@H](Cc1c[nH]c2ccccc12)C(N)=O [KKLLKGLLKGW]
- MIC (Escherichia coli K88): 16 µM (≈ 20.5 µg/mL)
- MIC [1]: ≥ 64 µM
- MIC [2]: ≥ 128 µM
- MIC [3]: ≥ 128 µM
- MIC [4]: ≥ 128 µM
- MIC [5]: ≥ 128 µM
- MIC [6]: 32 µM (≈ 41 µg/mL)
- MIC [7]: 64 µM (≈ 82.1 µg/mL)
- MIC [8]: ≥ 64 µM
- MIC [9]: ≥ 32 µM
- MIC [10]: 32 µM (≈ 41 µg/mL)
- MIC [11]: > 128 µM
- MIC [12]: > 128 µM
- MIC [13]: > 128 µM
- MIC [14]: ≥ 128 µM

SMILES: CC(C)C[C@H](NC(=O)[C@H](Cc1ccc(O)cc1)NC(=O)[C@H](C)NC(=O)[C@@H](NC(=O)[C@H](CC(C)C)NC(=O)[C@H](C)NC(=O)[C@H](C)NC(=O)[C@H](CCCCN)NC(=O)CNC(=O)[C@@H](NC(=O)[C@H](Cc1cnc[nH]1)NC(=O)[C@H](CCCCN)NC(=O)CNC(=O)[C@@H](NC(=O)[C@H](Cc1cnc[nH]1)NC(=O)[C@@H](NC(=O)[C@H](C)NC(=O)[C@H](CCCCN)NC(=O)[C@H](CCCCN)NC(=O)[C@H](Cc1ccccc1)NC(=O)[C@H](Cc1c[nH]c2ccccc12)NC(=O)[C@H](CCCCN)NC(=O)CNC(=O)[C@H](Cc1c[nH]c2ccccc12)NC(=O)[C@@H](N)CCCN=C(N)N)[C@@H](C)O)C(C)C)C(C)C)[C@@H](C)O)C(N)=O [RWGKWFKKATHVGKHVGKAALTAYL]
- MIC [15]: 0.701 µM (≈ 2 µg/mL)
- MIC [16]: 1.4 µM (≈ 4 µg/mL)
- MIC (Candida albicans C627): 5.61 µM (≈ 16 µg/mL)
- MIC [17]: 1.4 µM (≈ 4 µg/mL)
- MIC (Escherichia coli DC2): 1.4 µM (≈ 4 µg/mL)
- MIC (Escherichia coli UB1005): 1.4 µM (≈ 4 µg/mL)
- MIC [18]: 1.4 µM (≈ 4 µg/mL)
- MIC [19]: 0.701 µM (≈ 2 µg/mL)
- MIC [20]: 0.701 µM (≈ 2 µg/mL)
- MIC [21]: 2.8 µM (≈ 8 µg/mL)
- MIC [22]: 22.4 µM (≈ 64 µg/mL)
- MIC [23]: 22.4 µM (≈ 64 µg/mL)

SMILES: CC[C@H](C)[C@H](NC(=O)[C@@H](NC(=O)CNC(=O)[C@H](CCCN=C(N)N)NC(=O)[C@H](CCC(N)=O)NC(=O)[C@H](Cc1cnc[nH]1)NC(=O)[C@H](CC(C)C)NC(=O)[C@H](CCCN=C(N)N)NC(=O)[C@@H](NC(=O)[C@H](CC(C)C)NC(=O)[C@@H](NC(=O)[C@@H](NC(=O)[C@H](CC(C)C)NC(=O)[C@H](CC(C)C)NC(=O)[C@@H](N)C(C)C)C(C)C)[C@@H](C)O)[C@@H](C)O)C(C)C)C(=O)N[C@@H](Cc1ccc(O)cc1)C(=O)N[C@@H](CCCN=C(N)N)C(=O)N[C@@H](CCCCN)C(=O)N[C@@H](Cc1c[nH]c2ccccc12)C(=O)N[C@@H](CCCN=C(N)N)C(=O)N[C@@H](Cc1cnc[nH]1)C(=O)N[C@@H](Cc1ccccc1)C(=O)N[C@@H](CO)C(=O)NCC(=O)N[C@@H](CCCN=C(N)N)C(=O)N[C@@H](CCCCN)C(=O)N[C@@H](Cc1ccc(O)cc1)C(=O)N[C@@H](CCCN=C(N)N)C(=O)O [VLLVTLTRLHQRGVIYRKWRHFSGRKYR]
- MIC [37]: 25 µM (≈ 88.5 µg/mL)
- MIC (Candida albicans): 25 µM (≈ 88.5 µg/mL)
- MIC (Candida glabrata): ≥ 50 µM
- MIC (Candida krusei): 25 µM (≈ 88.5 µg/mL)
- MIC (Candida parapsilosis): 25 µM (≈ 88.5 µg/mL)
- MIC (Candida tropicalis): 12.5 µM (≈ 44.3 µg/mL)

Second part, the molecule after the results:

- MIC [24]: ≥ 32 µM
- MIC [25]: ≥ 64 µM
- MIC [26]: 16 µM (≈ 45 µg/mL)
- MIC [27]: 16 µM (≈ 45 µg/mL)
- MIC [28]: 16 µM (≈ 45 µg/mL)
- MIC [29]: ≥ 32 µM
- MIC [30]: 16 µM (≈ 45 µg/mL)
- MIC [31]: 16 µM (≈ 45 µg/mL)
- MIC [6]: 16 µM (≈ 45 µg/mL)
- MIC [32]: 16 µM (≈ 45 µg/mL)
- MIC [33]: 32 µM (≈ 90 µg/mL)
- MIC [34]: ≥ 32 µM
- MIC [35]: ≥ 32 µM
- MIC [36]: ≥ 64 µM
SMILES: CC[C@H](C)[C@H](NC(=O)CNC(=O)[C@H](CCC(N)=O)NC(=O)[C@H](Cc1ccccc1)NC(=O)[C@@H](NC(=O)[C@H](CCCCN)NC(=O)[C@H](CCCCN)NC(=O)[C@H](CC(C)C)NC(=O)[C@H](C)NC(=O)[C@H](CC(N)=O)NC(=O)[C@H](CC(C)C)NC(=O)[C@@H](N)Cc1c[nH]c2ccccc12)C(C)C)C(=O)N[C@@H](Cc1cnc[nH]1)C(=O)N[C@@H](CCC(=O)O)C(=O)N[C@@H](C)C(=O)N[C@H](C(=O)N[C@@H](CCCCN)C(=O)N[C@@H](CC(C)C)C(=O)N[C@H](C(=O)N[C@@H](CC(N)=O)C(=O)N[C@@H](CC(N)=O)C(=O)N[C@@H](Cc1cnc[nH]1)C(=O)N[C@H](C(=O)N[C@@H](CCC(N)=O)C(N)=O)C(C)C)[C@@H](C)CC)[C@@H](C)CC [WLNALKKVFQGIHEAIKLINNHVQ]

- MIC [15]: 0.7 µM (≈ 2 µg/mL)
- MIC [16]: 0.7 µM (≈ 2 µg/mL)
- MIC (Candida albicans C627): 1.4 µM (≈ 4 µg/mL)
- MIC [17]: 0.7 µM (≈ 2 µg/mL)
- MIC (Escherichia coli DC2): 0.7 µM (≈ 2 µg/mL)
- MIC (Escherichia coli UB1005): 2.8 µM (≈ 7.99 µg/mL)
- MIC [18]: 1.4 µM (≈ 4 µg/mL)
- MIC [19]: 0.35 µM (≈ 0.999 µg/mL)
- MIC [20]: 0.7 µM (≈ 2 µg/mL)
- MIC [21]: 2.8 µM (≈ 7.99 µg/mL)
- MIC [22]: 5.6 µM (≈ 16 µg/mL)
- MIC [23]: 2.8 µM (≈ 7.99 µg/mL)
SMILES: CC(=O)[C@H](CC(C)C)NC(=O)[C@H](Cc1ccc(O)cc1)NC(=O)[C@H](Cc1cnc[nH]1)NC(=O)[C@H](CC(=O)O)NC(=O)[C@@H](NC(=O)[C@H](C)NC(=O)[C@H](CC(C)C)NC(=O)CNC(=O)CNC(=O)[C@@H](NC(=O)[C@@H](NC(=O)[C@H](CCCCN)NC(=O)CNC(=O)[C@@H](NC(=O)[C@H](CCCCN)NC(=O)[C@H](CCCCN)NC(=O)[C@H](C)NC(=O)[C@H](CCCNC(=N)N)NC(=O)[C@H](CC(N)=O)NC(=O)[C@H](Cc1ccccc1)NC(=O)[C@H](Cc1c[nH]c2ccccc12)NC(=O)[C@H](CCCCN)NC(=O)[C@H](CCCCN)NC(=O)[C@H](Cc1c[nH]c2ccccc12)NC(=O)CN)C(C)C)[C@@H](C)O)C(C)C)C(C)C [GWKKWFNRAKKVGKTVGGLAVDHYL]
